Experiment [1] deals with calcium-saturated calmodulin (CaM·4Ca^2+) (Sus scrofa, UniProt F2Z5G3).
Experiment [2] concerns the target calcium-saturated calmodulin (CaM·4Ca^2+) (Homo sapiens, UniProt P0DP23).
Experiment [3] deals with calmodulin. The following applies: read-out: dissociation constant; 25°C, pH 7.3; fluorescence of dansylcalmodulin; ref [33]; cited from earlier work.
In experiment [4] the target is calmodulin. The note with it: read-out: dissociation constant; 4°C, pH 7.0; equilibrium dialysis; ref [35]; cited from earlier work. (In general: In equilibrium dialysis only unbound substance equilibrates across the membrane.)
In experiment [5] the test system is calmodulin. The note with it: amino- and carboxy-terminal deletion peptides; ref [38]; cited from earlier work.
Experiment [6] addresses Porcine calmodulin saturated with calcium (CaM·4Ca2+) (porcine). In words: HDX-MS.
The target is the same in experiment [7]. In words: HDX-MS. The source holds these as a separate data set.
Where [8] appears, read: from ΔD1, corrected for 50% D2O.

Read-outs that look alike come from different tables or passages of the source.

Chain of β-endorphin (P01189 237-267): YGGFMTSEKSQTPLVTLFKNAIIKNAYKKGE

Take `CC[C@H](C)[C@H](NC(=O)[C@H](C)NC(=O)[C@H](CC(N)=O)NC(=O)[C@H](CCCCN)NC(=O)[C@H](Cc1ccccc1)NC(=O)[C@H](CC(C)C)NC(=O)[C@@H](NC(=O)[C@@H](NC(=O)[C@H](CC(C)C)NC(=O)[C@@H]1CCCN1C(=O)[C@@H](NC(=O)[C@H](CCC(N)=O)NC(=O)[C@H](CO)NC(=O)[C@H](CCCCN)NC(=O)[C@H](CCC(=O)O)NC(=O)[C@H](CO)NC(=O)[C@@H](NC(=O)[C@H](CCSC)NC(=O)[C@H](Cc1ccccc1)NC(=O)CNC(=O)CNC(=O)[C@@H](N)Cc1ccc(O)cc1)[C@@H](C)O)[C@@H](C)O)C(C)C)[C@@H](C)O)C(=O)N[C@H](C(=O)N[C@@H](CCCCN)C(=O)N[C@@H](CC(N)=O)C(=O)N[C@@H](C)C(=O)N[C@@H](Cc1ccc(O)cc1)C(=O)N[C@@H](CCCCN)C(=O)N[C@@H](CCCCN)C(=O)NCC(=O)N[C@@H](CCC(=O)O)C(=O)O)[C@@H](C)CC` [β-endorphin]: the “ΔD1 (difference in deuterium uptake between bound and unbound peptide)” value in experiment [1] (dPLIMSTEX, peptide mass readout, 50% D2O) turned out to be 3.96 ± 0.09. In addition, the “backbone amides of the peptide protected upon binding to CaM·4Ca^2+” value in experiment [1] (setting [8]) is given as “at least eight”. Besides, the “backbone amide protons of CaM·4Ca^2+ that become protected on binding” value in experiment [2] (setting [8]) is on record as “approximately 30”. Further, the “ΔD1 (difference in deuterium uptake of the protein on binding)” value in experiment [2] (traditional PLIMSTEX, protein mass readout, 50% D2O) turned out to be 15.0. The Kd is 1.9 to 3.8 µM on calmodulin [3] and 2.5 to 4.6 µM on calmodulin [4]. The “domain responsible for inhibition of calmodulin function” value with calmodulin [5] is “residues 14–25”.

On to “β-endorphin (from UniProt P01189 237-267) (peptide)”, for which, in experiment [6], the Ka is 220000 M⁻¹ and the Kd worked out at 4.5 µM. In addition, in experiment [7], the Ka was determined as 205000 M⁻¹ and the Kd was 4.9 µM.

Values taken from paper PMC2932787 (Journal of the American Society for Mass Spectrometry, 2010).
